Experimental findings from ChEMBL document CHEMBL1201862, “PubChem BioAssay data set” (2004) are described below.

Assay in all cases: NCI anticancer screen, dose series, 48 h
The test system of test [1] is 786-0.
The subject of test [2] is BT-549.
Test [3] relates to CAKI-1.
Test [4] relates to EKVX.
Test [5] has as its system IGROV-1.
Test [6] deals with M14.
Test [7] has as its system MOLT-4.
Test [8] relates to Malme-3M.
The test system of test [9] is NCI-H460.
Test [10] deals with OVCAR-3.
The test system of test [11] is RPMI-8226.
The subject of test [12] is RXF 393.
The test system of test [13] is SF-295.
Test [14] relates to SK-MEL-2.
For test [15], the system named is SK-MEL-5.
Test [16] deals with SK-OV-3.
In test [17] the test system is SNB-75.
Test [18] has as its system TK-10.
Test [19] relates to UACC-257.

Molecules are shown by their SMILES.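 96-well plates; 48 h exposure; 5 concentrations. Endpoints by linear interpolation between flanking doses. Not reached: highest tested concentration assigned. GI50 = concentration required for 50% inhibition of growth.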 Activity calls are given as the source filed them. Rule as the data show it: active = GI50 up to about 1.1 µM and inactive = higher.

As to `COc1c(Br)cc(/C=C(\C#N)c2ccccn2)cc1Br`, the GI50 in [1] was 4.09 µM (inactive); in test [2] it was 22.8 µM (inactive); in [3], > 100 µM (inactive); in [4], 1.26 µM (inactive); in test [5], 51.4 µM (inactive); in [6] it was > 100 µM (inactive). The GI50 in test [7] is > 100 µM (inactive); in test [8] it was 44.7 µM (inactive); in test [9], > 100 µM (inactive); in test [10], > 100 µM (inactive); in test [11], > 100 µM (inactive); in test [12] it was 22.8 µM (inactive). For the same compound, the GI50 in test [13] is 19.2 µM (inactive); in test [14], 13.8 µM (inactive); in test [15] it was > 100 µM (inactive); in [16], 15.3 µM (inactive); in test [17], 0.891 µM (active); in test [18], 67.6 µM (inactive). Moreover, the GI50 in [19] was > 100 µM (inactive).

For `COc1ccc2c(c1O)[C@@]13CCCC=C1[C@@H](C2)N(C)CC3`, the GI50 is > 100 µM (inactive) in [1]; 34 µM (inactive) in test [2]; > 100 µM (inactive) in test [3]; > 100 µM (inactive) in [4]; > 100 µM (inactive) in [5]; 79.6 µM (inactive) in test [6]. For the same compound, the GI50 in test [7] was 44.3 µM (inactive); in [8] it was 1.75 µM (inactive); in [9], > 100 µM (inactive); in test [10], 50.7 µM (inactive); in test [11] it was 29.3 µM (inactive); in [12] it was > 100 µM (inactive). Also, the GI50 is > 100 µM (inactive) in test [13]; 36.7 µM (inactive) in test [14]; 69.2 µM (inactive) in test [15]; > 100 µM (inactive) in test [16]; 36.7 µM (inactive) in test [17]; > 100 µM (inactive) in test [18]. Moreover, the GI50 in test [19] was > 100 µM (inactive).

Consider `COc1cc(Cc2nccc3cc(OC)c(OC)cc23)c(/N=N/N(C)C)cc1OC`, for which the GI50 in test [1] is 4 µM (inactive); in test [2] it was 18.2 µM (inactive); in test [3], 5.45 µM (inactive); in test [4] it was 14.6 µM (inactive); in [5] it was 13.5 µM (inactive); in test [6], 17.5 µM (inactive). The GI50 was 5.27 µM (inactive) in [7]; 22.3 µM (inactive) in [8]; 7.23 µM (inactive) in test [9]; 15.5 µM (inactive) in test [10]; 4.73 µM (inactive) in [11]; 2.99 µM (inactive) in test [12]. Besides, the GI50 is 19.9 µM (inactive) in test [13]; 30.6 µM (inactive) in test [14]; 12.1 µM (inactive) in test [15]; 18.5 µM (inactive) in test [16]; 34 µM (inactive) in [17]; 20.4 µM (inactive) in [18]. For the same compound, the GI50 in test [19] is 20.3 µM (inactive).

As for `CSc1[nH]nc(N)c1C(=O)Nc1ccc(Cl)cc1`, the GI50 in test [1] was 52.1 µM (inactive); in test [2] it was 89.7 µM (inactive); in test [3] it was 46.2 µM (inactive); in test [4], > 100 µM (inactive); in [5], 98.9 µM (inactive); in test [6], 68.9 µM (inactive). The GI50 in test [7] was 51.6 µM (inactive); in [8], 63.7 µM (inactive); in test [9] it was 79.4 µM (inactive); in test [10] it was > 100 µM (inactive); in test [11] it was 37.7 µM (inactive); in test [12], 22.9 µM (inactive). Further, the GI50 in test [14] is > 100 µM (inactive); in test [15], > 100 µM (inactive); in test [16], > 100 µM (inactive); in [17] it was 75.5 µM (inactive); in [18], 47.2 µM (inactive); in test [19], > 100 µM (inactive).

As to `Cc1cc(NC[C@H](O)[C@H](O)[C@H](O)CO)c(Sc2cc(=O)[nH]c(=O)[nH]2)cc1C`, the GI50 in test [1], in [2], in [3], in [4], in [5] and in test [6] was > 62.5 µM (inactive) in each case. Further, the GI50 in test [7], in [8], in test [9], in [10], in test [11] and in [12] was > 62.5 µM (inactive) each time. For the same compound, the GI50 in test [13], in [14], in test [15], in test [16], in test [17] and in test [18] was > 62.5 µM (inactive) each time. For the same compound, the GI50 in test [19] is > 62.5 µM (inactive).

With `CCO/N=C(/CC)c1ccc(Br)s1`, the GI50 in test [1], in test [2], in test [3], in [4], in [5] and in test [6] was > 100 µM (inactive) in each case. In addition, the GI50 is 53.5 µM (inactive) in [7]; > 100 µM (inactive) in test [8]; > 100 µM (inactive) in test [9]; > 100 µM (inactive) in test [10]; > 100 µM (inactive) in test [12]; > 100 µM (inactive) in [13]. Also, the GI50 in [14], in test [15], in test [16], in [17], in test [18] and in test [19] was > 100 µM (inactive) in each case.

As for `CCOC(=O)C(Cc1ccc(N(CCCl)CCCl)cc1)NC(=O)C(Cc1ccccc1)NC(C)=O` (stereo unspecified), the GI50 is 0.184 µM (active) in test [1]; > 0.583 µM (active) in [2]; 0.111 µM (active) in [3]; > 0.347 µM (active) in [4]; 0.0414 µM (active) in test [5]; 0.141 µM (active) in [6]. For the same compound, the GI50 is 0.0581 µM (active) in [7]; 0.0887 µM (active) in [8]; 0.222 µM (active) in test [9]; 0.173 µM (active) in test [10]; 0.0655 µM (active) in test [11]; 0.106 µM (active) in test [12]. In addition, the GI50 in test [13] is > 0.326 µM (active); in test [14], > 0.265 µM (active); in [15], 0.248 µM (active); in test [16], > 0.296 µM (active); in test [17] it was > 1 µM (active); in test [19] it was 0.235 µM (active).

With `Nc1nc(Cl)cc(NCC2(O)CCCC2)n1`, the GI50 in test [1], in test [2], in test [3], in test [4], in test [5] and in test [7] was > 100 µM (inactive) each time. Besides, the GI50 in test [8], in test [9], in [10], in test [11], in test [12] and in test [13] was > 100 µM (inactive) in each case. The GI50 in test [14], in test [15], in test [16], in test [17], in test [18] and in [19] was > 100 µM (inactive) each time.

For `O=C(CC(Cl)(Cl)C(Cl)(Cl)Cl)c1ccccc1`, the GI50 in [1] is 3.01 µM (inactive); in test [2] it was 10.7 µM (inactive); in [3] it was 2.3 µM (inactive); in test [5], 4.84 µM (inactive); in test [6], 2.62 µM (inactive); in [7], 3.17 µM (inactive). For the same compound, the GI50 in test [8] was 2.71 µM (inactive); in test [9] it was 12 µM (inactive); in [10] it was 1.85 µM (inactive); in test [11], 3.45 µM (inactive); in [12] it was 1.96 µM (inactive); in test [13], 1.78 µM (inactive). Further, the GI50 is 10.1 µM (inactive) in [14]; 12 µM (inactive) in test [15]; 18.4 µM (inactive) in test [16]; 15.3 µM (inactive) in test [17]; 6.1 µM (inactive) in [18]; 1.78 µM (inactive) in test [19].

Take `C=C1CN(C(=O)c2cc3cc(OC)c(OC)c(OC)c3[nH]2)c2cc([N+](=O)[O-])ccc21`: the GI50 in [1] was 30.5 µM (inactive); in test [2], 61.2 µM (inactive); in test [3] it was > 100 µM (inactive); in [4], > 100 µM (inactive); in [5] it was > 100 µM (inactive); in test [6] it was > 100 µM (inactive). Also, the GI50 in test [7] was 69.3 µM (inactive); in [8] it was > 100 µM (inactive); in test [9], > 100 µM (inactive); in test [10], > 100 µM (inactive); in [11], > 100 µM (inactive); in test [12] it was 14.6 µM (inactive). Further, the GI50 in test [14] is 34.8 µM (inactive); in test [15], > 100 µM (inactive); in test [16] it was 33.2 µM (inactive); in test [17], 51.1 µM (inactive); in test [18], 26.5 µM (inactive); in test [19], > 100 µM (inactive).

Take `COc1ccc(/C(=N/OCCCC(=O)O)c2cccs2)cc1`: the GI50 in test [1], in test [2], in test [3], in test [4], in test [7] and in test [8] was > 100 µM (inactive) each time. In addition, the GI50 in test [9], in test [10], in [11], in test [12], in test [13] and in test [14] was > 100 µM (inactive) in each case. For the same compound, the GI50 in [15], in [16], in test [17], in test [18] and in test [19] was > 100 µM (inactive) each time.
